Test results published in the supplement of paper PMC10307832.

Tests used:
Assay in all cases: relative viability (nuclei count vs DMSO), 5 days (fraction); higher = more cells survive
Venetoclax + Alpelisib = compound: CC1(C)CCC(CN2CCN(c3ccc(C(=O)NS(=O)(=O)c4ccc(NCC5CCOCC5)c([N+](=O)[O-])c4)c(Oc4cnc5[nH]ccc5c4)c3)CC2)=C(c2ccc(Cl)cc2)C1 [Venetoclax] + Cc1nc(NC(=O)N2CCC[C@H]2C(N)=O)sc1-c1ccnc(C(C)(C)C(F)(F)F)c1 [Alpelisib] (partner 2 µM)
Procedure, shortened: (§1)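 Dosing by pin tool came one day after lung cancer cell lines were seeded in 1536-well plates, using either one drug or a fixed anchor-drug dose plus five library-drug doses (not always all listed) in √10 steps. After 5 days, nuclei were counted on 4× images. Relative viability is treated-well nuclei count divided by vehicle-well nuclei count, and values are medians of duplicate plates.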

Selumetinib + Foretinib = compound: Cn1cnc2c(F)c(Nc3ccc(Br)cc3Cl)c(C(=O)NOCCO)cc21 [Selumetinib] + COc1cc2c(Oc3ccc(NC(=O)C4(C(=O)Nc5ccc(F)cc5)CC4)cc3F)ccnc2cc1OCCCN1CCOCC1 [Foretinib] (partner 0.25 µM)
Procedure, shortened: as §1

Venetoclax + Dasatinib = compound: CC1(C)CCC(CN2CCN(c3ccc(C(=O)NS(=O)(=O)c4ccc(NCC5CCOCC5)c([N+](=O)[O-])c4)c(Oc4cnc5[nH]ccc5c4)c3)CC2)=C(c2ccc(Cl)cc2)C1 [Venetoclax] + Cc1nc(Nc2ncc(C(=O)Nc3c(C)cccc3Cl)s2)cc(N2CCN(CCO)CC2)n1 [Dasatinib] (partner 0.075 µM)
Procedure, shortened: as §1

Selumetinib + Phenformin = compound: Cn1cnc2c(F)c(Nc3ccc(Br)cc3Cl)c(C(=O)NOCCO)cc21 [Selumetinib] + N=C(N)NC(=N)NCCc1ccccc1 [Phenformin] (partner 250 µM)
Procedure, shortened: as §1

Row | Cell Line | relative viability (Venetoclax + Alpelisib; first compound 0.01 µM) | relative viability (Venetoclax + Alpelisib; first compound 0.03162 µM) | relative viability (Venetoclax + Alpelisib; first compound 0.1 µM) | relative viability (Venetoclax + Alpelisib; first compound 0.3162 µM) | relative viability (Venetoclax + Alpelisib; first compound 1 µM) | relative viability (Selumetinib + Foretinib; first compound 0.02 µM) | relative viability (Selumetinib + Foretinib; first compound 0.06325 µM) | relative viability (Selumetinib + Foretinib; first compound 0.2 µM) | relative viability (Selumetinib + Foretinib; first compound 0.6325 µM) | relative viability (Venetoclax + Dasatinib; first compound 0.01 µM) | relative viability (Venetoclax + Dasatinib; first compound 0.03162 µM) | relative viability (Venetoclax + Dasatinib; first compound 0.1 µM) | relative viability (Venetoclax + Dasatinib; first compound 0.3162 µM) | relative viability (Venetoclax + Dasatinib; first compound 1 µM) | relative viability (Selumetinib + Phenformin; first compound 0.02 µM) | relative viability (Selumetinib + Phenformin; first compound 0.06325 µM) | relative viability (Selumetinib + Phenformin; first compound 0.2 µM) | relative viability (Selumetinib + Phenformin; first compound 0.6325 µM)
1 | NCI-H1563 | 1.03 | 0.938 | 0.852 | 0.987 | 1.03 | 0.879 | 0.955 | 0.903 | 0.824 | 0.531 | 0.516 | 0.445 | 0.442 | 0.461 | 0.688 | 0.68 | 0.627 | 0.593
2 | NCI-H1651 | 0.973 | 0.949 | 0.959 | 0.987 | 0.905 | 0.758 | 0.731 | 0.67 | 0.673 | 0.474 | 0.43 | 0.383 | 0.409 | 0.43 | 0.329 | 0.264 | 0.281 | 0.298
3 | NCI-H1666 | 0.8 | 0.89 | 1.13 | 0.971 | 1.04 | 0.827 | 0.839 | 0.791 | 0.734 | 0.816 | 0.821 | 0.838 | 0.708 | 0.766 | 0.506 | 0.534 | 0.569 | 0.565
4 | NCI-H1734 | 0.682 | 0.732 | 0.624 | 0.628 | 0.689 | 0.88 | 0.843 | 0.672 | 0.611 | 0.471 | 0.415 | 0.417 | 0.446 | 0.451 | 0.351 | 0.298 | 0.345 | 0.248
5 | NCI-H1755 | 0.968 | 0.912 | 0.842 | 0.962 | 0.893 | 0.874 | 0.807 | 0.824 | 0.847 | 0.398 | 0.404 | 0.43 | 0.402 | 0.378 | 0.628 | 0.594 | 0.584 | 0.53
6 | NCI-H1793 | 0.8 | 0.737 | 0.595 | 0.711 | 0.613 | 0.69 | 0.511 | 0.386 | 0.415 | 0.448 | 0.355 | 0.291 | 0.358 | 0.27 | 0.364 | 0.349 | 0.316 | 0.273
7 | NCI-H1915 | 1.03 | 1.05 | 1.02 | 1.01 | 1.06 | 1.16 | 1.03 | 0.812 | 0.529 | 0.303 | 0.301 | 0.311 | 0.297 | 0.32 | 0.423 | 0.371 | 0.271 | 0.284
8 | NCI-H1944 | 1.12 | 0.836 | 0.779 | 0.864 | 0.845 | 0.898 | 0.796 | 0.69 | 0.536 | 0.283 | 0.235 | 0.201 | 0.222 | 0.227 | 0.192 | 0.195 | 0.157 | 0.168
